Data on four compounds can be found in US20030229922A1, “Materials and methods for the modification of plant cell wall polysaccharides” (GENESIS RESEARCH AND DEVELOPMENT CORPORATION LTD., priority 1998, published 2003).

Assay [1] has as its target T1, Eucalyptus grandis UGP (UDP-glucose pyrophosphorylase), SEQ ID NO: 79 (DNA; protein SEQ ID NO: 103) (Eucalyptus grandis, UniProt B3VDY8).
T1 construct: wild type
The experiment in a line: UGP enzyme assay (purified recombinant protein). The assay is classed as biochemical. Conditions: E. grandis UGP. The text has this: Sense constructs containing sequences including the coding regions for UGP (SEQ ID NO: 79) and SUS (SEQ ID NO: 105) from Eucalyptus grandis, and UGP (SEQ ID NO: 80) from Pinus radiata were inserted into the expression vector pET16b (Clontech Laboratories Inc, Palo Alto, Calif.). The resulting constructs were transformed into E. coli XL1-Blue (Stratagene) and induced to produce recombinant protein by the addition of IPTG. Purified proteins were obtained using Ni^2+ column chromatography (Janknecht et al., Proc. Natl. Acad. Sci. USA, 88:8972-8976, 1991).
Enzyme assays for UGP were performed using published methods (Peng and Chang, FEBS Lett. 329:153-158, 1993).

For assay [2], the system named is S. tuberosum UGP (Katsube et al.). Conditions: cited from earlier work.
The test system of assay [3] is S. tuberosum UGP (Nakano et al.). Conditions: cited from earlier work.
Assay [4] concerns V. radiata SUS (sucrose synthase) (Delmer et al.). As to conditions: SEM n.a.; cited from earlier work.

Each structure is given as a SMILES string. Where two headings read alike, the source gives them in different places.

T1 sequence (B3VDY8 entry or part of it): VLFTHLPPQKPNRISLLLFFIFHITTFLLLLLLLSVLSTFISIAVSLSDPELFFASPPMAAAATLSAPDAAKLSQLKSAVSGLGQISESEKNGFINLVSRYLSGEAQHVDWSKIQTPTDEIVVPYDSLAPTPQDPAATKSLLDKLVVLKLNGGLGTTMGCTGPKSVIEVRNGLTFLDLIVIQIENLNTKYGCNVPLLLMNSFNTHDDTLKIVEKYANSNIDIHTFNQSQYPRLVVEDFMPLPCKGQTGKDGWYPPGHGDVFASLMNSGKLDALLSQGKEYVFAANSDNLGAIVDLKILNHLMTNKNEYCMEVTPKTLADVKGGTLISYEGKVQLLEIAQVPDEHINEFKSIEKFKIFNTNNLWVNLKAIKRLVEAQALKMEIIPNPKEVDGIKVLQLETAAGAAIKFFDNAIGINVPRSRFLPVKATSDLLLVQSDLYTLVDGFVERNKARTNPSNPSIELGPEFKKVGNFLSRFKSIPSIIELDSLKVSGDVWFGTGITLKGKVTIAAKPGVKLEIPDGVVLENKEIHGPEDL

Regarding `Nc1ncnc2c1ncn2[C@@H]1O[C@H](COP(=O)(O)OP(=O)(O)OP(=O)(O)O)[C@@H](O)[C@H]1O` [ATP], the “KM^ATP” value in assay [1], in assay [2] and in assay [3] was “no activity” in each case.

Regarding `O=P(O)(O)O[C@H]1O[C@H](CO)[C@@H](O)[C@H](O)[C@H]1O` [G1P], the Michaelis-Menten constant (Km) (usually the concentration of substrate that gives half-maximal velocity) in assay [2] (read-out: KM^G1P, SEM n.a.) is 130 µM; in assay [3] (read-out: KM^G1P, SEM n.a.), 180 µM.

With `OC[C@H]1O[C@@](CO)(O[C@H]2O[C@H](CO)[C@@H](O)[C@H](O)[C@H]2O)[C@@H](O)[C@@H]1O` [Sucrose], the Km in assay [4] was 16700 µM.

Take `O=c1ccn([C@@H]2O[C@H](COP(=O)(O)OP(=O)(O)OP(=O)(O)O)[C@@H](O)[C@H]2O)c(=O)[nH]1` [UTP]: the Km in assay [2] (read-out: KM^UTP, SEM n.a.) was 76 µM; in assay [3] (read-out: KM^UTP, SEM n.a.), 170 µM.
